# Biological target: T1, RORγ (Homo sapiens, UniProt P51449)
# T1 construct: expressed in transfected cells; host or cells: 293FT cells (Invitrogen), expression vector pFN26A (Promega)
# T1 sequence (P51449 269-508 limits assumed): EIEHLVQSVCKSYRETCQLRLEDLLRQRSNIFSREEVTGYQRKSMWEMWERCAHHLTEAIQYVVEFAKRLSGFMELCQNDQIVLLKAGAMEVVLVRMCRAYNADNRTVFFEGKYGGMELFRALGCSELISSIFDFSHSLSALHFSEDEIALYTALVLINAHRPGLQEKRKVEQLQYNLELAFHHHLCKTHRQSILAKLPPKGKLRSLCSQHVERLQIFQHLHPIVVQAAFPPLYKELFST
# Assay: RORγ GAL4 reporter gene assay
# Format: cell-based
# Conditions: inhibition of RORγ activity, GAL4-RORγ-LBD luciferase reporter in 293FT cells, overnight incubation; read-out: mean pIC50 (converted)
# Method: Example inhibitors 1-166 were tested for their ability to inhibit RORγ activity in a RORγ GAL4 reporter gene assay. The assay procedure and results are described below.
# RORγ GAL4 Reporter Gene Assay Description
# A GAL4 one-hybrid reporter system employing luciferase readout was established to determine inhibition of RORγ in 293FT cells. The RORγ ligand-binding domain (LBD) was fused to the yeast GAL4 DNA binding domain (DBD) and placed under the control of the human cytomegalovirus (CMV) immediate early promoter, using expression vector pFN26A (Promega) and standard recombinant DNA cloning methods. To serve as a control in the assay, a similar vector was generated in which the GAL4-DBD was fused to Herpes simplex virus protein 16 (VP16), a constitutive transcriptional activator.
# To monitor the inhibitory effect of compounds on RORγ, a transcriptional reporter construct was used. The pGL4.35 vector (Promega) contains nine copies of the GAL4 Upstream Activator Sequence (UAS). This sequence drives the transcription of the luciferase reporter gene luc2P in response to binding of a fusion protein containing the GAL4 DNA binding domain, as for example expressed by the GAL4-RORγ-LBD and GAL4-VP16 expression vectors described above. To allow a GAL4 fusion protein to drive the expression of the luciferase reporter, the pGL4.35 expression vector and the appropriate GAL4 fusion protein expression vector were bulk transfected in the 293FT cells using standard transfection techniques.
# The day after transfection, cells were plated into 96 well plates, test compound was added and the plates were incubated overnight. Subsequently, the firefly luciferase activity was quantified using luciferase detection reagent and luminescence readout.
# Detailed Assay Description
# 293FT cells (Invitrogen) were transfected with a GAL4 fusion protein expression vector (as described above) and the transcriptional reporter construct (pGL4.35, Promega). 60 μL of TransIT-293 transfection reagent (Mirus Bio) was added drop wise to 1500 μl Opti-MEM I Reduced Serum Medium (Invitrogen) and incubated at room temperature (RT) for 5 to 20 minutes. 1500 μL of this reagent mixture was added to 5 μg of GAL4 fusion protein expression vector and 5 μg of the transcriptional reporter construct, and incubated at RT for 20 minutes.
# To harvest 293FT cells from a T75 flask, first the culture medium was taken off the cells. Subsequently, the cells were washed with Phosphate Buffered Saline (PBS) (Lonza), after which the PBS was removed. To dissociate the cells, 1 ml of TrypLE Express (Invitrogen) was added to the flask, followed by incubation at RT until the cells visually started to detach. Cells were collected in 5 mL of assay medium (DMEM culture medium (Lonza), 10% dialyzed FBS (Invitrogen) and Pen/Strep (Lonza)) to achieve a single cell suspension. 10×10^6 cells were spun down and re-suspended in 10 mL of assay medium. Subsequently, the cell suspension was added to the transfection mix tube, and then transferred as a whole to a T75 flask (Greiner), followed by overnight (16-24 hours) incubation at 37° C. and 5% CO2.
# For compound screening, the cells were harvested (as described above) and counted. 13×10^6 cells were spun down, the supernatant was aspirated and the cells were re-suspended in 17.3 mL of assay medium obtaining a cell suspension of 0.75×10^6 cells/mL. 80 μL of cell suspension (60,000 cells) was plated per well into a white, flat bottom, tissue culture treated, 96 well screening plates (Greiner).
# Test compounds were diluted, starting from a 10 mM dimethylsulfoxide (DMSO) stock solution, to serial dilutions in DMSO at 500× the final test concentration. Subsequently, these solutions were diluted to 5× the final test concentration in two 10-fold-dilution steps in assay medium. The final DMSO concentration of the 5× test compound solution was 1%. […]
row,IC50 [µM],Structure (SMILES)
1,≤ 0.1,"CN(Cc1ccco1)C(=O)c1ccc(NC(=O)Cc2ccc(S(=O)(=O)CC3CC3)cc2)cc1 [Example 59, 4-[2-(4-cyclopropylmethanesulfonylphenyl)acetamido]-N-(furan-2-ylmethyl)-N-methylbenzamide]"
2,≤ 1,"CC(C)(CN1CCOCC1)NC(=O)c1ccc(NC(=O)Cc2ccc(S(=O)(=O)CC3CC3)cc2)cc1 [Example 60, 4-[2-(4-cyclopropylmethanesulfonylphenyl)acetamido]-N-[2-methyl-1-(morpholin-4-yl)propan-2-yl]benzamide]"
3,≤ 0.1,"C=CCN(CC=C)C(=O)c1ccc(NC(=O)Cc2ccc(S(=O)(=O)CC3CC3)cc2)cc1 [Example 61, 4-[2-(4-cyclopropylmethanesulfonylphenyl)acetamido]-N,N-bis(prop-2-en-1-yl)benzamide]"
4,≤ 1,"CC(C)CN(CC(C)C)C(=O)c1ccc(NC(=O)Cc2ccc(S(=O)(=O)NC3CC3)cc2)cc1 [Example 62, 4-{2-[4-(cyclopropylsulfamoyl)phenyl]acetamido}-N,N-bis(2-methylpropyl)benzamide]"
5,≤ 0.01,"O=C(Cc1ccc(S(=O)(=O)CC2CC2)cc1)Nc1ccc(C(=O)N2CCCCc3ccccc32)cc1 [Example 63, 2-(4-cyclopropylmethanesulfonylphenyl)-N-[4-(2,3,4,5-tetrahydro-1H-1-benzazepine-1-carbonyl)phenyl]acetamide]"
6,≤ 0.01,"CCN(C(=O)c1ccc(NC(=O)Cc2ccc(S(=O)(=O)CC3CC3)cc2)cc1)c1nc(C)c(C)s1 [Example 64, 4-[2-(4-cyclopropylmethanesulfonylphenyl)acetamido]-N-(4-methyl-5-methyl-1,3-thiazol-2-yl)-N-ethylbenzamide]"
7,≤ 1,"CCCN(C(=O)c1ccc(NC(=O)Cc2ccc(S(=O)(=O)NC3CC3)cc2)cc1)c1cccnc1 [Example 65, 4-{2-[4-(cyclopropylsulfamoyl)phenyl]acetamido}-N-propyl-N-(pyridin-3-yl)benzamide]"
8,≤ 0.1,"O=C(Cc1ccc(S(=O)(=O)NC2CC2)cc1)Nc1ccc(C(=O)N2CCCCC2c2ccccc2)cc1 (centres unmarked) [Example 66, 2-[4-(cyclopropylsulfamoyl)phenyl]-N-[4-(2-phenylpipendine-1-carbonyl)phenyl]acetamide]"
9,≤ 1,"CN(C(=O)c1ccc(NC(=O)Cc2ccc(S(=O)(=O)CC3CC3)cc2)cc1Cl)c1ccccn1 [Example 67, 2-chloro-4-[2-(4-cyclopropylmethanesulfonylphenyl)acetamido]-N-methyl-N-(pyridin-2-yl)benzamide]"
10,≤ 1,"CC(C)(NC(=O)c1ccc(NC(=O)Cc2ccc(S(=O)(=O)CC3CC3)cc2)cc1)c1cccnc1 [Example 68, 4-[2-(4-cyclopropylmethanesulfonylphenyl)acetamido]-N-[2-(pyridin-3-yl)propan-2-yl]benzamide]"
11,≤ 1,"CC(C)[C@@H](NC(=O)c1ccc(NC(=O)Cc2ccc(S(=O)(=O)CC3CC3)cc2)cc1)C(F)(F)F [Example 69, 4-[2-(4-cyclopropylmethanesulfonylphenyl)acetamido]-N-[(2R)-1,1,1-trifluoro-3-methylbutan-2-yl]benzamide]"
12,≤ 1,"COc1ccccc1[C@H](C)NC(=O)c1ccc(NC(=O)Cc2ccc(S(=O)(=O)CC3CC3)cc2)cc1 [Example 70, 4-[2-(4-cyclopropylmethanesulfonylphenyl)acetamido]-N-[(1S)-1-(2-methoxyphenyl)ethyl]benzamide]"
13,≤ 1,"N#CC(NC(=O)c1ccc(NC(=O)Cc2ccc(S(=O)(=O)CC3CC3)cc2)cc1)c1cccs1 (centres unmarked) [Example 72, N-[cyano(thiophen-2-yl)methyl]-4-[2-(4-cyclopropylmethanesulfonylphenyl)acetamido]benzamide]"
14,≤ 1,"N#CC(NC(=O)c1ccc(NC(=O)Cc2ccc(S(=O)(=O)CC3CC3)cc2)cc1)c1ccccc1 (centres unmarked) [Example 73, N-[cyano(phenyl)methyl]-4-[2-(4-cyclopropylmethanesulfonylphenyl)acetamido]benzamide]"
